Measured values published in patent US8597904B2, “Pharmaceutical compositions for the treatment of conditions responsive to proteasome inhibition” (priority 2007, dated 2013).

Assays:
SK-N-SH cells = experiment: Cytox-Glo cytotoxicity assay; type: cell-based, human; conditions: for cytotoxicity: 0.25 μM GlbA or 25 μM SylA, 48 hours; for cytotoxicity in the presence of 3-MA: pre-treated with 3-MA
Description: Determination of potential cytotoxic effects by GlbA and/or […] was carried out by using the Cytox-Glo cytotoxicity assay, which measures “dead cell proteases” from cells that have lost membrane integrity. Briefly, cells were treated with a single concentration of compound for 48 hours in a final volume of 100 μl, after which 50 μl of AAF-Glo luminogenic peptide substrate (alanyl-alanyl-phenylalanyl-aminoluciferin) was added to each well and incubated for 15 min at room temperature. The luminescence was measured by a Dynex MLX luminometer to give a reading of cells with damaged membranes. Next, 50 μl of digitonin was added to each well and the samples incubated for 15 minutes at room temperature. Luminescence was measured a second time to determine total cell number. Controls included cells with vehicle only, media, and media with compound.
SK-N-SH cells were treated with 0.25 μM GlbA or 25 μM SylA and SKOV3 cells were treated with 1.0 μM GlbA or 25 μM SylA. As illustrated in FIGS. 16A and 16B, control cells (treated with DMSO and H2O representing GlbA and SylA controls, respectively) were viable and no cytotoxicity was detected.
To determine if autophagy plays a role in GlbA/SylA-induced cell death, levels of cytotoxicity in cells pre-treated with 3-methyladenine (3-MA), an established autophagy inhibitor, were measured using the assay described in Example 12.

[1] = biological target: T1, human erythrocyte 20S proteasomes, trypsin-like activity (Homo sapiens, UniProt Q99436); experiment: 20S Proteasome Assay Kit, Boc-LRR-AMC substrate; type: biochemical; conditions: 37° C., 100 μM Boc-LRR-AMC
T1 construct: which contains human erythrocyte 20S proteasomes; purchased BIOMOL International AK-740; host or cells: human erythrocytes
Description: The eukaryotic 20S proteasome contains three catalytic subunits (β1, β2, and (β5) conferring caspase-like, trypsin-like and chymotrypsin-like proteolytic activities, respectively (Borissenko and Groll. 2007. Chem. Rev. 107:687-717, which is incorporated herein by reference in its entirety). Syringolin A was tested as a proteasome inhibitor using the 20S Proteasome Assay Kit for Drug Discovery AK-740 (BIOMOL® International, Plymouth Meeting, PA, USA), which contains human erythrocyte 20S proteasomes, in a 96-well microtiter plate. The fluorogenic substrates Suc-LLVY-AMC, Boc-LRR-AMC, and Z-LLE-AMC (BIOMOL® International) were used to monitor chymotrypsin-like, trypsin-like, and caspase-like activities, respectively. […] The release of free AMC (7-amino-4-methylcoumarin) at 37° C. was monitored with an MWGt Sirius HT fluorescence microplate reader (BIO-TEK® Instruments) equipped with a 360 nm excitation and a 460 nm emission filter. Proteolytic activities were measured as the increase in relative fluorescence units (RFU) over time (FIG. 7A-C). […] The initial velocities (vi) were determined from the time derivative of these curves and plotted versus the corresponding inhibitor concentration ([I]). […] The rate of covalent inhibition (kassociation), which equals kobs/[I] was calculated over the range of inhibitor concentrations given in parentheses in FIG. 7D. […]

| Compound | cytotoxicity (SK-N-SH cells) | cytotoxicity in the presence of 3-MA (SK-N-SH cells) | inhibition of trypsin-like activity [1] |
| --- | --- | --- | --- |
| CCCCCCC/C=C/C=C/C(=O)N[C@H](C(=O)N[C@H]1C[C@@H](O)CCNC(=O)/C=C/[C@H](C)NC1=O)[C@@H](C)O [glidobactin A] | about 40% | significantly reduced | less sensitive |
| CC(C)[C@H](NC(=O)N[C@H](C(=O)N[C@H]1/C=C/CCNC(=O)/C=C/[C@H](C(C)C)NC1=O)C(C)C)C(=O)O [syringolin A] | ~30% | significantly reduced | inhibited |
